Source: patent publication US20130323279A1, “Human Endogenous Retrovirus Polypeptide Compositions and Methods of Use Thereof” (The J. David Gladstone Institutes, priority 2006, published 2013)

Tested on: PBMC
Test: IFN-γ ELISPOT assay of T cell responses to HERV and HIV-1 peptides
Assay type: cell-based, Human
Conditions: a study participant whose PBMC were used for the 51Cr release assay
Procedure: HIV-1 positive volunteers were selected for this study. The study was approved by the local institutional review board and subjects were given written informed consent. Studies were performed on cryopreserved PBMC from various patient timepoints.
ELISPOT analysis was performed as previously described^34. Plates were incubated 15-18 hours at 37° C. Equivalent antigen concentrations were used for HIV and HERV peptide response comparisons. Assays were performed with duplicate wells for each condition, expect where cell recovery from archived samples dictated the use of single wells. Plates were counted with an AID ELISPOT reader (Cell Technology,). Spot totals for duplicate wells were averaged, and all spot numbers were normalized to numbers of IFN-γ spot-forming units (SFU) per 1×10^6PBMC. Spot values from media control wells were subtracted to determine responses to each peptide. Any resulting peptide values <0 following media subtraction were set to 0 for further analysis.

## IPVHKAHKKQ [HERV-L IQ10]
  response of study participant's PBMC to peptide: responded
